According to ChEMBL document CHEMBL6114998, “Design, Synthesis, and Pharmacological Evaluation of Quinazoline and Quinoline Derivatives as Potent ENPP1 Inhibitors for Cancer Immunotherapy” (J Med Chem, 2025):
The source made the active and inactive calls. The calls are words filed in the database; no cut-off is given here.

How the values were obtained:
[1] = target: T1, Ectonucleotide pyrophosphatase/phosphodiesterase family member 1 (Homo sapiens, UniProt P22413); assay: Inhibition of recombinant human ENPP1 transfected in HEK293T cells using cGAMP as substrate at pH 7.5 measured after 3.5 hrs by luminescence based AMP-glo assay; type: cell-based
T1 sequence (P22413 whole entry): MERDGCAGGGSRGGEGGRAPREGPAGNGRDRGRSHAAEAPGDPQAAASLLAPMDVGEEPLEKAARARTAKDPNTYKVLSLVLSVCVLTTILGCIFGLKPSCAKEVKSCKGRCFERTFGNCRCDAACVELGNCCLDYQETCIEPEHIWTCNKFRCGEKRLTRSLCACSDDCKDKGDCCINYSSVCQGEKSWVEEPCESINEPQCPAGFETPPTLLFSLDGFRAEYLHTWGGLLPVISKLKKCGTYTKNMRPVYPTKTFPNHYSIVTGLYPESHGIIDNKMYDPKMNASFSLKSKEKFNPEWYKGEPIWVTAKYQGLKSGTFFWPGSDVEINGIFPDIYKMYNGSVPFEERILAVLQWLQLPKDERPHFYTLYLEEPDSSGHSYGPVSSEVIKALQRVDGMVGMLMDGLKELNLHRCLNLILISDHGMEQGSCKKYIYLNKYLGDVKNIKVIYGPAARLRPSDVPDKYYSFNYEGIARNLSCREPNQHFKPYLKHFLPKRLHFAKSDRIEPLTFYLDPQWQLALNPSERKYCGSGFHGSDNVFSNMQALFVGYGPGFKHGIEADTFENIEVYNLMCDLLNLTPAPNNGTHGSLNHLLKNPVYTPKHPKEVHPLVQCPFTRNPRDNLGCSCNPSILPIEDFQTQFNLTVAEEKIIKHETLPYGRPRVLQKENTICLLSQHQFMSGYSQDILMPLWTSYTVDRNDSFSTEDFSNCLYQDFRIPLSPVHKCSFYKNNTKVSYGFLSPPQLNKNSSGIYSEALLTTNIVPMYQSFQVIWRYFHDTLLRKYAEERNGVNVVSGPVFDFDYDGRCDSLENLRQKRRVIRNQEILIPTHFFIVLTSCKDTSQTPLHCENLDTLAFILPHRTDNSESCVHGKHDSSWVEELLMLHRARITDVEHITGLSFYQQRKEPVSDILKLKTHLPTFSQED

[2] = target: T1, Ectonucleotide pyrophosphatase/phosphodiesterase family member 1; assay: Inhibition of ENPP1 in human MDA-MB-231 cells using p-NPh-5TMP as substrate at pH 9.5 measured after 60 mins; type: cell-based
[3] = test system: THP-1; assay: Activation of STING signalling pathway in human THP-1 cells assessed as increase in IFNB1 expression at 10 to 1000 nM measured after 18 hrs in presence of cGAMP by qPCR analysis; type: cell-based; conditions: filed as activator, dose 10-1000 nM
[4] = target: Voltage-gated inwardly rectifying potassium channel KCNH2 (Homo sapiens, UniProt Q12809); assay: Inhibition of hERG expressed in CHO cells by QPatch automated patch-clamp assay; type: toxicity, cell-based
Sequence of Voltage-gated inwardly rectifying potassium channel KCNH2 (Q12809 whole entry): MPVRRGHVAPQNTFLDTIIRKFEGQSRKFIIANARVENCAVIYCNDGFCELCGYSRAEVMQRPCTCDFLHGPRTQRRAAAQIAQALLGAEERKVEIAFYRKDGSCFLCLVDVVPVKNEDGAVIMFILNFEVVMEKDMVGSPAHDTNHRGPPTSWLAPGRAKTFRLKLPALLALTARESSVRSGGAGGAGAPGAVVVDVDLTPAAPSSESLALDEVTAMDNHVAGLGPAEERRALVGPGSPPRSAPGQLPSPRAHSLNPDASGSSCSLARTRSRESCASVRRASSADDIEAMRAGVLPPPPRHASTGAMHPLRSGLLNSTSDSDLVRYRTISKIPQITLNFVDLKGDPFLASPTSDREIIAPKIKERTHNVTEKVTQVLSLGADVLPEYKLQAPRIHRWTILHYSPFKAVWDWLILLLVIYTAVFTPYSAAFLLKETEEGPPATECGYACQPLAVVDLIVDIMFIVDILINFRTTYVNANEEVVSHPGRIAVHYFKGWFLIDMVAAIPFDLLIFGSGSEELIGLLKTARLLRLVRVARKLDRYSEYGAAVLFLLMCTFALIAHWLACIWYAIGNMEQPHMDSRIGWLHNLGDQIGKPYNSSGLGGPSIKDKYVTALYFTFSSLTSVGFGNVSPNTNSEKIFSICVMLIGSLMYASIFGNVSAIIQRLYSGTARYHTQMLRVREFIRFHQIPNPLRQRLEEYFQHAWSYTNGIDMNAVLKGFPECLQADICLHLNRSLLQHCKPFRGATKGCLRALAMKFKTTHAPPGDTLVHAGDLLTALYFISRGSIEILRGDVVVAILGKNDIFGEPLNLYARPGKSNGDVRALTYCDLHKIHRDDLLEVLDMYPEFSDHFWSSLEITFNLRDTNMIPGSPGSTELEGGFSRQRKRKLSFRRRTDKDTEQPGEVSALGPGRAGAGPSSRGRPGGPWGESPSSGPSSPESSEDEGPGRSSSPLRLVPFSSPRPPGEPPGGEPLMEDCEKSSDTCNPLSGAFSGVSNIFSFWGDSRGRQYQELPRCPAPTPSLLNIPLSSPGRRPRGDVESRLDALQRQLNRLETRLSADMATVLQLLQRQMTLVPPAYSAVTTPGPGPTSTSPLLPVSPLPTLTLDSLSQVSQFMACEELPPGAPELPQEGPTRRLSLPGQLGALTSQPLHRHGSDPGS

[5] = Cmax in Sprague-Dawley rat at 10 mg/kg, iv measured upto 24 hrs by LC-MS/MS analysis; type: ADME, organism-based; conditions: in vivo
[6] = target: T1, Ectonucleotide pyrophosphatase/phosphodiesterase family member 1; assay: Inhibition of ENPP1 in human MDA-MB-231 cells using p-NPh-5TMP as substrate at pH 8.5 measured after 60 mins; type: cell-based
[7] = Half life in Sprague-Dawley rat at 10 mg/kg, iv measured upto 24 hrs by LC-MS/MS analysis; type: ADME, organism-based; conditions: in vivo
[8] = AUC(0 to t) in Sprague-Dawley rat at 10 mg/kg, iv measured upto 24 hrs by LC-MS/MS analysis; type: ADME, organism-based; conditions: in vivo
[9] = Clearance in Sprague-Dawley rat at 10 mg/kg, iv measured upto 24 hrs by LC-MS/MS analysis; type: ADME, organism-based; conditions: in vivo
[10] = MRT (0 to t) in Sprague-Dawley rat at 10 mg/kg, iv measured upto 24 hrs by LC-MS/MS analysis; type: ADME, organism-based; conditions: in vivo
[11] = Apparent permeability across apical to basal side in human Caco-2 cells at 10 uM by LC-MS/MS analysis; type: ADME, cell-based
[12] = Apparent permeability across basal to apical side in human Caco-2 cells at 10 uM by LC-MS/MS analysis; type: ADME, cell-based
[13] = Efflux ratio of apparent permeability from basolateral to apical side over apical to basolateral side in human Caco-2 cells at 10 uM by LC-MS/MS analysis; type: ADME, cell-based
[14] = test system: THP1-Dual; assay: Activation of STING-mediated immune response in human THP1-Dual cells assessed as increase in cGAMP-induced ISRE activation preincubated in conditioned medium containing 36 hrs compound treated with human MDA-MB-231 cells measured after 24 hrs by quanti-luc luciferase assay; type: cell-based; conditions: filed as activator, time 60.0 hrs
[15] = test system: THP1-Dual KO-STING; assay: Activation of STING-mediated immune response in human THP1-Dual KO-STING cells assessed as cGAMP-induced ISRE activation at 1 uM preincubated with conditioned medium containing 36 hrs compound treated with human MDA-MB-231 cells and measured after 24 hrs by quanti-luc luciferase assay; type: cell-based; conditions: filed as activator, time 60.0 hrs
[16] = test system: THP1-Dual KO-STING; assay: Cytotoxicity against human THP1-Dual KO-STING cells assessed as effect on cell viability at 1 uM followed by addition of conditioned medium containing 36 hrs compound pretreated human MDA-MB-231 cells measured after 24 hrs by celltiter-glo assay; type: functional, cell-based; conditions: time 60.0 hrs
[17] = test system: THP1-Dual; assay: Cytotoxicity against human THP1-Dual cells assessed as effect on cell viability at 10 to 1000 nM pretreated with compound in serum-free medium for 36 hrs in presence of cGAMP followed by replacement with condition medium and measured after 24 hrs by celltiter-glo assay; type: functional, cell-based; conditions: dose 10-1000 nM, time 60.0 hrs
[18] = target: T1, Ectonucleotide pyrophosphatase/phosphodiesterase family member 1; assay: Binding affinity to human ENPP1 assessed as inhibition constant
[19] = test system: CT26; assay: Antitumor activity against mouse CT26 cells allografted in female BALB/c mouse assessed as tumor growth inhibition at 200 mg/kg QD, po measured every 2 days for 12 days relative to control; type: functional; conditions: CT26, 288 h, time 12 day, read-out: TGI
[20] = Toxicity in female BALB/c mouse allografted with mouse CT26 cells assessed as change in body weight at 200 mg/kg QD, po measured every 2 days for 12 days; type: organism-based; conditions: in vivo, 288 h, time 12 day
[21] = test system: THP1-Dual; assay: Activation of STING-mediated immune response in human THP1-Dual cells assessed as increase in cGAMP-induced ISRE activation by measuring type 1 IFN response at 10 to 1000 nM preincubated in conditioned medium containing 36 hrs compound treated with human MDA-MB-231 cells measured after 24 hrs by quanti-luc luciferase assay; type: cell-based; conditions: filed as activator, dose 10-1000 nM, time 60.0 hrs

## COc1cccc2c(N[C@H]3CC[C@@H](NS(N)(=O)=O)CC3)ncnc12
[1]
  IC50: 0.0276 µM
[2]
  IC50: 0.042 µM

## COc1cccc2c(NC3CCC(NS(N)(=O)=O)CC3)c(C#N)cnc12 (stereo unspecified)
[1]
  IC50: 0.0403 µM
[2]
  IC50: 0.00862 µM

## COc1cccc2c(NC34CC(NS(N)(=O)=O)(C3)C4)ncnc12
[1]
  IC50: 0.0951 µM
[2]
  IC50: > 1 µM

## COc1cccc2c(N3CCC(C)(CNS(N)(=O)=O)CC3)c(C#N)cnc12
[1]
  IC50: 0.00384 µM
[2]
  IC50: 0.00107 µM
[3]
  Activity: Active
[4]
  IC50: > 40 µM

## COc1cccc2c(N3CCC(C#N)(CNS(N)(=O)=O)CC3)c(C#N)cnc12
[1]
  IC50: 0.00665 µM
[2]
  IC50: 0.00097 µM
[3]
  Activity: Active
[4]
  IC50: > 40 µM

## COc1cccc2c(N3CCC4(CC3)CC4NS(N)(=O)=O)ncnc12 (stereo unspecified)
[1]
  IC50: 0.0953 µM
[2]
  IC50: > 1 µM

## COc1cccc2c(N3CCC4(CC3)CC(NS(N)(=O)=O)C4)c(C#N)cnc12
[1]
  IC50: 0.373 µM
[2]
  IC50: > 1 µM

## COc1cccc2c(N[C@H]3CC[C@H](CNS(N)(=O)=O)CC3)c(C#N)cnc12
[1]
  IC50: > 1 µM
[2]
  IC50: > 1 µM

## COc1cccc2c(N3CCC(O)(CCNS(N)(=O)=O)CC3)ncnc12
[1]
  IC50: 0.305 µM
[2]
  IC50: 0.154 µM

## COc1cccc2c(NC3CC(NS(N)(=O)=O)C3)c(C#N)cnc12 (stereo unspecified)
[1]
  IC50: 0.0537 µM
[2]
  IC50: 0.0166 µM

## COc1cccc2c(N3CCC4(CC(NS(N)(=O)=O)C4)C3)c(C#N)cnc12 (stereo unspecified)
[1]
  IC50: 0.0277 µM
[2]
  IC50: 0.00678 µM

## COc1cccc2c(N[C@H]3CC[C@H](CNS(N)(=O)=O)CC3)ncnc12
[1]
  IC50: > 1 µM
[2]
  IC50: > 1 µM

## COc1cccc2c(N3CCC(CCP(=O)(O)O)CC3)ncnc12
[5]
  Cmax: 4.8 µg/mL
[1]
  IC50: 0.0005 µM
[2]
  IC50: 0.0501 µM
[3]
  Activity: Active
[6]
  IC50: 0.015 µM
[7]
  half-life: 0.878 h
[8]
  AUC(0-t) at 24 h: 1.78 µg·h/mL
[9]
  clearance: 5.64 L/h/kg
[10]
  MRT last at 24 h: 0.39 h
[11]
  Papp A→B at 10 µM: 1.18 nm/s
[12]
  Papp B→A at 10 µM: 3.94 nm/s
[13]
  efflux ratio at 10 µM: 3.34
[14]
  Activity: Dose-dependent-effect
[15]
  Activity: Active
[16]
  Activity: Active
[17]
  Activity: Active
[18]
  Ki: < 0.002 µM

## COc1cccc2c(N3CCC4(CC3)CC(NS(N)(=O)=O)C4)ncnc12
[1]
  IC50: 0.455 µM
[2]
  IC50: > 1 µM

## COc1cccc2c(NC34CC(NS(N)(=O)=O)(C3)C4)c(C#N)cnc12
[1]
  IC50: 0.00622 µM
[2]
  IC50: 0.0103 µM

## COc1cccc2c(N3CC4CC3CC4CNS(N)(=O)=O)c(C#N)cnc12 (stereo unspecified)
[1]
  IC50: 0.0555 µM
[2]
  IC50: 0.0232 µM

## Cn1nc(Cc2ccc(NS(N)(=O)=O)cc2)c2ccccc2c1=O
[5]
  Cmax: 11.4 µg/mL
[1]
  IC50: 1.38 µM
[2]
  IC50: 0.556 µM
[6]
  IC50: 4.56 µM
[7]
  half-life: 3.24 h
[8]
  AUC(0-t) at 24 h: 27.9 µg·h/mL
[9]
  clearance: 0.371 L/h/kg
[10]
  MRT last at 24 h: 2.92 h
[11]
  Papp A→B at 10 µM: 60.6 nm/s
[12]
  Papp B→A at 10 µM: 232 nm/s
[13]
  efflux ratio at 10 µM: 3.82
[19]
  inhibition in vivo at 200 mg/kg: 39.4%
[20]
  Activity: Non-toxic
[21]
  Activity: Active
[16]
  Activity: Active
[17]
  Activity: Active

## COc1cccc2c(N3CCC(F)(CNS(N)(=O)=O)CC3)ncnc12
[1]
  IC50: 0.0149 µM
[2]
  IC50: 0.00288 µM

## COc1cccc2c(N[C@H]3CC[C@H](NS(N)(=O)=O)CC3)ncnc12
[1]
  IC50: 0.37 µM
[2]
  IC50: > 1 µM

## COc1cccc2c(N3CCC(F)(CNS(N)(=O)=O)CC3)c(C#N)cnc12
[1]
  IC50: 0.00328 µM
[2]
  IC50: 0.00123 µM
[3]
  Activity: Active

## COc1cccc2c(N3CCC4(CC3)CC4NS(N)(=O)=O)c(C#N)cnc12 (stereo unspecified)
[1]
  IC50: 0.0237 µM
[2]
  IC50: 0.0062 µM

## COc1cccc2c(NC3CC(NS(N)(=O)=O)C3)ncnc12 (stereo unspecified)
[1]
  IC50: 0.438 µM
[2]
  IC50: > 1 µM

## COc1cccc2c(NC3CCC(NS(N)(=O)=O)CC3)ncnc12 (stereo unspecified)
[1]
  IC50: 0.156 µM
[2]
  IC50: > 1 µM

## COc1cccc2c(N3CCC(O)(CNS(N)(=O)=O)CC3)c(C#N)cnc12
[1]
  IC50: 0.0116 µM
[2]
  IC50: 0.00184 µM
[3]
  Activity: Active

## COc1cccc2c(N3CCC(C)(CNS(N)(=O)=O)CC3)ncnc12
[1]
  IC50: 0.0102 µM
[2]
  IC50: 0.00441 µM

## COc1cccc2c(N[C@H]3CC[C@@H](NS(N)(=O)=O)CC3)c(C#N)cnc12
[1]
  IC50: 0.018 µM
[2]
  IC50: 0.0107 µM

## COc1cccc2c(N3CCC4(CC(NS(N)(=O)=O)C4)C3)ncnc12 (stereo unspecified)
[1]
  IC50: 0.0149 µM
[2]
  IC50: 0.00506 µM

## COc1cccc2c(N3CCC4(CC3)CC(NS(N)(=O)=O)CO4)c(C#N)cnc12 (stereo unspecified)
[1]
  IC50: 0.572 µM
[2]
  IC50: > 1 µM
